Test results from patent US8614223B2, “Pyrimidine hydroxy amide compounds as protein deacetylase inhibitors and methods of use thereof” (Acetylon Pharmaceuticals, Inc., priority 2010, dated 2013).

Experiments:
[1] = target: HDAC6 (Homo sapiens (Human), UniProt Q9UBN7); conditions: read-out: HDAC6 IC50
[2] = target: HDAC1 (Homo sapiens (Human), UniProt Q13547); assay: HDAC enzyme assay, HDAC1; conditions: for HDAC1 fold over HDAC6 IC50 (selectivity for HDAC6): ratio HDAC1/HDAC6; for IC50: read-out: HDAC1 IC50
[3] = target: HDAC2 (Homo sapiens (Human), UniProt Q92769); assay: HDAC enzyme assay, HDAC2; conditions: for HDAC2 fold over HDAC6 IC50 (selectivity for HDAC6): ratio HDAC2/HDAC6; for IC50: read-out: HDAC2 IC50
[4] = target: HDAC3 (Homo sapiens (Human), UniProt O15379); assay: HDAC enzyme assay, HDAC3; conditions: for HDAC3 fold over HDAC6 IC50 (selectivity for HDAC6): ratio HDAC3/HDAC6; for IC50: read-out: HDAC3 IC50
HDAC3, sequence (O15379 whole entry): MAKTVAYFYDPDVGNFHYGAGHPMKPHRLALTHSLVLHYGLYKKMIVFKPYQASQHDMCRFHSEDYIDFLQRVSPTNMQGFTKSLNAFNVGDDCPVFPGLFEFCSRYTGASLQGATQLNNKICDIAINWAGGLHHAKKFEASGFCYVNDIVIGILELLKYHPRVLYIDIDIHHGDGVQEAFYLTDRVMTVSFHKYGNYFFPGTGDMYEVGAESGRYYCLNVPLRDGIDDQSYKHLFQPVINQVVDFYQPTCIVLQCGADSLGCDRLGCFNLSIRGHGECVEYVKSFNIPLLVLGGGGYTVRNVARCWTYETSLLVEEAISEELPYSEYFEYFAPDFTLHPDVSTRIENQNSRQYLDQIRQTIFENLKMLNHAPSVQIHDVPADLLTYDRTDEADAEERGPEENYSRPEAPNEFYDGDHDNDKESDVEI
HDAC3, sequence (Q9Y618 395-489 partner): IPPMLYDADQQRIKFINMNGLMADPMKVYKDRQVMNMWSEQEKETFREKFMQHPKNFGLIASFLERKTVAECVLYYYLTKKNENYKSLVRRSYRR

HDAC1, sequence (Q13547 whole entry): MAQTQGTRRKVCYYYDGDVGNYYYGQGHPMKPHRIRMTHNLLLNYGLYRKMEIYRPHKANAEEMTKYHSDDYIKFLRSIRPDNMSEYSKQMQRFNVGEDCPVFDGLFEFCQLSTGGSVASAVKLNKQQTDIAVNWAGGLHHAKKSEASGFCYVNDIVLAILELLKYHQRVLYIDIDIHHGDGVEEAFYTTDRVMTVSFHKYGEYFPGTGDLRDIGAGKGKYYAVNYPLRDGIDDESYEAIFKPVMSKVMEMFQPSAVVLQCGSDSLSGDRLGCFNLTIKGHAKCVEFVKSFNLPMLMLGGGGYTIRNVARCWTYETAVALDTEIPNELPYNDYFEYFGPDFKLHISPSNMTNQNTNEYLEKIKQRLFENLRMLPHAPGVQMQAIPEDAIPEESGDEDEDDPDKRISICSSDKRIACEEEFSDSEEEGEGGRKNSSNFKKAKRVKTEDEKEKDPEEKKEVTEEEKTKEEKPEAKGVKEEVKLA
HDAC2, sequence (Q92769 whole entry): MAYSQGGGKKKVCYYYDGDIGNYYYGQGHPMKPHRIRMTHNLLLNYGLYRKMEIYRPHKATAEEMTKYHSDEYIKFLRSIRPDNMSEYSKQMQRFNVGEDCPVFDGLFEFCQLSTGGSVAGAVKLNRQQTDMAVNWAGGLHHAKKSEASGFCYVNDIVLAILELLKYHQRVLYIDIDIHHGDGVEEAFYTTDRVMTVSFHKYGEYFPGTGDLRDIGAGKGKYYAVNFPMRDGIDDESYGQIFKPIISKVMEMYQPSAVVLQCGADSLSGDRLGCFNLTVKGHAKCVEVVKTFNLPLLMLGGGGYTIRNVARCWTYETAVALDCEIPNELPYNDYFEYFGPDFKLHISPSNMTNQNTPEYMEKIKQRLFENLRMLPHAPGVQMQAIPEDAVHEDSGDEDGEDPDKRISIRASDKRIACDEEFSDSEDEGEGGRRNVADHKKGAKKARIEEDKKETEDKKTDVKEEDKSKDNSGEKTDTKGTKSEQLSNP
HDAC6, sequence (Q9UBN7 whole entry): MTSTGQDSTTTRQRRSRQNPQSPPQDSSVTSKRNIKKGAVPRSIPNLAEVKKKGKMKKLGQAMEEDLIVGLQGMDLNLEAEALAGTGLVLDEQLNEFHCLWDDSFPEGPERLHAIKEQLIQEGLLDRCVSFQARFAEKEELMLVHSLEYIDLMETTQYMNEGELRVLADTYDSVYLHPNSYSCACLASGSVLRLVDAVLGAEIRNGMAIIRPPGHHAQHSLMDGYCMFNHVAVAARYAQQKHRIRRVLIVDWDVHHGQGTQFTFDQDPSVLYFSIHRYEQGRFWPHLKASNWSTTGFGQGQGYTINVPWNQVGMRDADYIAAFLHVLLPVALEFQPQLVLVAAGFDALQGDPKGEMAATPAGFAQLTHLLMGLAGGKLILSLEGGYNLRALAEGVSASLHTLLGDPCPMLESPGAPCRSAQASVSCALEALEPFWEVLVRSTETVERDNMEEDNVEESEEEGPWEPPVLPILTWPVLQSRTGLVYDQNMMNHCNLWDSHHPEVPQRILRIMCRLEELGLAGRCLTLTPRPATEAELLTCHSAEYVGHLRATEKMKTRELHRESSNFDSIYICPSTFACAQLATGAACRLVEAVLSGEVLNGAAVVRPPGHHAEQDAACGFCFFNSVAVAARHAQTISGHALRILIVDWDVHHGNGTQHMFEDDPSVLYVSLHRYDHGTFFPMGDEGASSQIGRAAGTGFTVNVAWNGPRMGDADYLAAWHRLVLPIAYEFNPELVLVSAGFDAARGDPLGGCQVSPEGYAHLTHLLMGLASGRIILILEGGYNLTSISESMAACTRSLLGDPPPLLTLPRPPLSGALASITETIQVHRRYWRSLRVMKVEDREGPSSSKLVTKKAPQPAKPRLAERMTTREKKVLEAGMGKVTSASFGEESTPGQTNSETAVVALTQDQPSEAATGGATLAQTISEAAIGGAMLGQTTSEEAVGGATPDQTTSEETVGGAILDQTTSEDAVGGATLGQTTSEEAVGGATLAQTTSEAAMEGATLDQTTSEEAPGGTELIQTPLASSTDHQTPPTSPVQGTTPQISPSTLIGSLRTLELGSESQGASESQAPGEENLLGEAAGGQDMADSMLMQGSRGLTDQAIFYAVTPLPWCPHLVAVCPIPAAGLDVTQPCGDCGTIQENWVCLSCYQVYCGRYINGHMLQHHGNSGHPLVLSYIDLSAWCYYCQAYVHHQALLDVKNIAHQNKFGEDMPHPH

| SMILES | IC50 [1] [nM] | HDAC1 fold over HDAC6 IC50 (selectivity for HDAC6) [2] | IC50 [2] [nM] | HDAC2 fold over HDAC6 IC50 (selectivity for HDAC6) [3] | IC50 [3] [nM] | HDAC3 fold over HDAC6 IC50 (selectivity for HDAC6) [4] | IC50 [4] [nM] |
| --- | --- | --- | --- | --- | --- | --- | --- |
| O=C(NO)c1cnc(NC(c2ccc(F)cc2)c2ccc(F)cc2)nc1 [Compound 89] | 3 | (64.4x) | 223 | (78.1x) | 270 | (158.8x) | 549 |
| COc1cc(Nc2ncc(C(=O)NO)cn2)cc(OC)c1 [Compound 23] | 3 | (60.4x) | 155 | (134x) | 343 | (100.2x) | 257 |
| O=C(NO)c1cnc(NC2(c3cccc(F)c3)CCCCC2)nc1 [Compound 101] | 7 | (283.5x) | 2120 | (343.2x) | 2570 | (1498.8x) | 11200 |
| O=C(NO)c1cnc(Nc2cccc(-c3ccccc3)c2)nc1 [Compound 28] | 4 | (30.7x) | 111 | (51.5x) | 187 | (50.1x) | 181 |
| O=C(NO)c1cnc(NCc2ccccc2C(F)(F)F)nc1 [Compound 38] | 7 | (67.5x) | 470 | (103.5x) | 720 | (128.1x) | 891 |
| O=C(NO)c1cnc(NCc2ccccc2OC(F)(F)F)nc1 [Compound 47] | 4 | (55.8x) | 223 | (86.7x) | 346 | (75.1x) | 300 |
| Cc1cc(C)cc(Nc2ncc(C(=O)NO)cn2)c1 [Compound 19] | 4 | (69.1x) | 251 | (131.7x) | 478 | (88x) | 319 |
| O=C(NO)c1cnc(NCCc2ccccc2Cl)nc1 [Compound 39] | 4 | (62.6x) | 263 | (92.2x) | 387 | (117.9x) | 495 |
| CC(Nc1ncc(C(=O)NO)cn1)(c1ccccc1)c1ccccc1 [Compound 79] | 6 | (221.6x) | 1270 | (319.8x) | 1830 | (817.2x) | 4680 |
| O=C(NO)c1cnc(NCc2ccccc2)nc1 [Compound 35] | 2 | (42.3x) | 77 | (76.2x) | 140 | (70x) | 128 |
| O=C(NO)c1cnc(Nc2ccccc2)nc1 [Compound 1, N-hydroxy-2-(phenylamino)pyrimidine-5-carboxamide] | 7 | 20x | – | 30x | – | 27x | – |
| O=C(NO)c1cnc(NCCc2c[nH]c3ccccc23)nc1 [Compound 43] | 4 | (22.8x) | 90 | (30.3x) | 120 | (27.1x) | 107 |
| O=C(NO)c1cnc(NCc2ccc(-c3ccccc3)cc2)nc1 [Compound 107] | 2 | (2.7x) | 60 | (3.7x) | 9 | (8x) | 19 |
| O=C(NO)c1cnc(NC2c3ccccc3-c3ccccc32)nc1 [Compound 111] | 19 | (48x) | 911 | (40.5x) | 767 | (70x) | 1330 |

Continued, values first:

| IC50 [1] [nM] | HDAC1 fold over HDAC6 IC50 (selectivity for HDAC6) [2] | IC50 [2] [nM] | HDAC2 fold over HDAC6 IC50 (selectivity for HDAC6) [3] | IC50 [3] [nM] | HDAC3 fold over HDAC6 IC50 (selectivity for HDAC6) [4] | IC50 [4] [nM] | SMILES |
| --- | --- | --- | --- | --- | --- | --- | --- |
| 3 | (18.2x) | 64 | (20.9x) | 73 | (54x) | 189 | Cc1cc(C(F)(F)F)cc(C2(Nc3ncc(C(=O)NO)cn3)CC2)c1 [Compound 147] |
| 2 | (19.8x) | 38 | (28.7x) | 56 | (36.2x) | 70 | O=C(NO)c1cnc(NCc2cccc(C(F)(F)F)c2)nc1 [Compound 40] |
| 41 | (34.5x) | 1410 | (39.9x) | 1630 | (84.7x) | 3460 | CC1(Nc2ncc(C(=O)NO)cn2)CCCCC1 [Compound 110] |
| 4 | (90.9x) | 386 | (112.8x) | 479 | (184x) | 782 | COc1ccc(Cl)cc1C1(Nc2ncc(C(=O)NO)cn2)CC1 [Compound 139] |
| 4 | (3.4x) | 12 | (5x) | 17 | (8.4x) | 29 | O=C(NO)c1cnc(NC2(c3cccc(F)c3F)CC2)nc1 [Compound 143] |
| 4 | (19.5x) | 78 | (24.1x) | 97 | (32.3x) | 130 | O=C(NO)c1cnc(NCCc2cccc(Cl)c2)nc1 [Compound 42] |
| 1 | (15.5x) | 20 | (21.5x) | 28 | (25.7x) | 34 | O=C(NO)c1cnc(NCc2cccc(Cl)c2)nc1 [Compound 34] |
| 3 | (182.9x) | 583 | (193.1x) | 615 | (677.2x) | 2160 | O=C(NO)c1cnc(NC2(c3ccc(F)cc3)CCCC2)nc1 [Compound 148] |
| 7 | (8x) | 55 | (9x) | 62 | (18.5x) | 128 | O=C(NO)c1cnc(NC2(c3ccc(F)c(F)c3)CC2)nc1 [Compound 140] |
| 1 | (19.9x) | 27 | (26.2x) | 36 | (30.2x) | 41 | O=C(NO)c1cnc(NC2(c3ccccc3Cl)CC2)nc1 [Compound 90] |
| 4 | (24.4x) | 95 | (24.4x) | 96 | (80.8x) | 316 | O=C(NO)c1cnc(NC2(c3cc(F)cc(F)c3)CC2)nc1 [Compound 132] |
| 10 | (32.6x) | 329 | (62.5x) | 631 | (42.6x) | 430 | O=C(NO)c1cnc(Nc2ccc([N+](=O)[O-])c(C(F)(F)F)c2)nc1 [Compound 10] |
| 10 | (50.9x) | 516 | (92.6x) | 938 | (81.9x) | 830 | O=C(NO)c1cnc(Nc2cc(Cl)cc(C(F)(F)F)c2)nc1 [Compound 25] |
| 3 | (215.2x) | 711 | (296.1x) | 978 | (679.1x) | 2240 | O=C(NO)c1cnc(NC2(c3ccccc3)CCCC2)nc1 [Compound 88] |
| 6 | (86x) | 526 | (116.6x) | 713 | (147.4x) | 901 | O=C(NO)c1cnc(NCc2ccc(F)cc2C(F)(F)F)nc1 [Compound 57] |
| 21 | (15.7x) | 332 | (18.1x) | 384 | (28.3x) | 600 | O=C(NO)c1cnc(Nc2c(F)c(F)cc(F)c2F)nc1 [Compound 16] |
